Results from patent US20250270202A1, “SUBSTITUTED 4-AMINOISOINDOLINE COMPOUND, PREPARATION METHOD THEREFOR, PHARMACEUTICAL COMPOSITION THEREOF, AND USE THEREOF” (SHANGHAI INSTITUTE OF MATERIA MEDICA, CHINESE ACADEMY OF …, priority 2022, published 2025).
Read-outs that look alike come from different tables or passages of the source.

Key:
Assay type in all cases: cell-based
MM.1S cells = experiment: Effect of the compound on MM.1S cell proliferation (MTS, 7 days)
Method: MM.1S cells were cultured in 1640 medium supplemented with 10% fetal bovine serum, then collected and diluted to the desired cell concentration after 7 days of treatment. A total of 180 μL of cell suspension was added to each well in a 96-well cell plate, ensuring 20,000 cells per well. For the control group, 20 μL of 0.2% DMSO was added to each well. Compounds were diluted in a 5-step gradient from a 10 mM stock solution, and 20 μL of each dilution was added to the compound-containing wells (with a final DMSO concentration of 0.2%). The cells were incubated in a 37° C., 5% CO2 incubator for 7 days. Afterward, 20 μL of the MTS reagent (Promega, G5430) was added to each well, followed by incubation for 3-4 hours in a 37° C., 5% CO2 incubator. Absorbance at 490 nm was measured using a microplate reader, with 690 nm absorbance as the background. The final raw data was calculated as OD490-OD690. The compound inhibition rate was calculated using the formula: […]
The IC50 for the compound's proliferative inhibition was fitted using GraphPad Prism 5.0. The experiment was repeated three times, and the average and standard deviation were calculated using three parallel experiments per trial.

Mino cells = experiment: Inhibition of cell proliferation of Mino cells (MTS, 3 days)
Method: Mino cells were cultured with RPMI-1640 medium supplemented with 15% fetal bovine serum, and collected. The cell concentration was diluted according to a 3-day treatment period, and 90 μL of the cell suspension was added to each well of a 96-well plate, resulting in 8000 cells per well. For control wells, 10 μL of DMSO at a final concentration of 0.2% was added. The compounds were diluted in a 5-fold gradient from a 10 mM stock solution, and 10 μL of each compound solution was added to the experimental wells (with a final DMSO concentration of 0.2%). The cells were incubated in a 37° C., 5% CO2 incubator for 3 days. After preparing the reaction mixture using the MTS reagent kit (Promega, G5430), 20 μL was added to each well, and the cells were incubated for 3-4 hours at 37° C., 5% CO2.
The absorbance at 490 nm was read using a microplate reader, with the absorbance at 690 nm used as the background. The final raw data was calculated as OD490-OD690. The inhibition rate of the compounds was calculated using the formula: Inhibition rate=(OD DMSO−OD compound)/(OD DMSO−OD blank)×100%. The IC50 values for cell proliferation inhibition of the compounds were fitted using GraphPad Prism 5.0. The experiment was repeated three times, with the average and standard deviation calculated from three parallel experiments each time.

MV-4-11 cells = experiment: Inhibition of MV-4-11 cell proliferation (MTS, 7 days)
Method: MV-4-11 cells were cultured in IMDM with 10% fetal bovine serum, collected, and diluted to the appropriate cell concentration for a 7-day treatment period. A 96-well plate was used, and 180 μL of cell suspension was added to each well, resulting in a cell count of 2,000 per well. For the control wells, 20 μL of DMSO at a final concentration of 0.2% was added. The compounds were diluted from a 10 mM stock solution in a five-fold gradient, and 20 μL was added to the compound wells (with a final DMSO concentration of 0.2%). The cells were incubated in a 37° C., 5% CO2 incubator for 7 days. After preparing the reaction solution using the MTS reagent kit (Promega, G5430), 20 μL was added to each well, and the cells were incubated in the incubator for 3-4 hours. The absorbance at 490 nm was measured using a microplate reader, with the absorbance at 690 nm as the background value. The final data was calculated as OD490-OD690. The inhibition rate of the compounds was calculated using the formula: […]
The IC50 values for proliferation inhibition were calculated using GraphPad Prism 5.0. The experiments were repeated three times, with three parallel experiments for each, and the mean and standard deviation were calculated.
The cell activity test results are shown in Table 3: A indicates IC50<1 μM, B indicates 1 µM≤IC50≤20 μM, and C indicates IC50>20 μM.

[1] = Homo sapiens, MM1.S, 168 h, 7 days, MTS, Table 1, read-out: MM.1S Cells Inhibition Activity IC50
[2] = Homo sapiens, MINO, 72 h, 3 days, MTS, Table 2, read-out: Mino Cells Inhibition Activity IC50
[3] = Homo sapiens, MV4-11, 168 h, 7 days, MTS, Table 3, read-out: MV-4-11 Cells Inhibition Activity IC50
[4] = Homo sapiens, MM1.S, Table 4, read-out: Inhibitory Activity of Compounds on Cell Proliferation MM.1S IC50
[5] = Homo sapiens, MINO, Table 4, read-out: Inhibitory Activity of Compounds on Cell Proliferation Mino IC50
[6] = Homo sapiens, MV4-11, Table 4, values in nM, read-out: Inhibitory Activity of Compounds on Cell Proliferation MV-4-11 IC50
[7] = Homo sapiens, MV4-11, Table 4, values in μM, read-out: Inhibitory Activity of Compounds on Cell Proliferation MV-4-11 IC50

Structure (SMILES) | IC50 (MM.1S cells; [1]) | IC50 (MV-4-11 cells; [3]) | IC50 (Mino cells; [2]) | further results
CC(C)(C)C(=O)OCN1C(=O)CCC(N2C(=O)c3cccc(NCc4cnc(-c5ccc(C(F)(F)F)cc5)s4)c3C2=O)C1=O (stereo not shown) [Example 39] | 15 to 30 nM | < 1000 nM | 60 to 120 nM | –
CC(C)(C)C(=O)N1CCC(c2ncc(CNc3cccc4c3CN(C3CCC(=O)NC3=O)C4=O)o2)CC1 (stereo not shown) [Example Ctrl-1, 3-(1-oxo-4-(((2-(1-pivaloylpiperidin-4-yl)oxazol-5-yl)methyl)amino)isoindolin-2-yl)piperidine-2,6-dione, reference compound] | – | – | – | IC50 (MM.1S cells; [4]): 420 nM; IC50 (Mino cells; [5]): > 20000 nM; IC50 (MV-4-11 cells; [6]): 14400 nM
Nc1cccc2c1C(=O)N(C1CCC(=O)NC1=O)C2=O (stereo not shown) [Pomalidomide, reference compound] | 30 to 150 nM | > 20000 nM | > 120 nM | IC50 (MV-4-11 cells; Homo sapiens, MV4-11, positive compounds, read-out: IC50 in MV-4-11 acute leukemia cells): > 20000 nM
O=C1CCC(N2C(=O)c3cccc(NCc4cnc(CN5CCOCC5)o4)c3C2=O)C(=O)N1 (stereo not shown) [Example 82] | > 150 nM | < 1000 nM | > 120 nM | –
CN(Cc1cnc(-c2ccc(Cl)cc2)o1)c1cccc2c1C(=O)N(C1CCC(=O)NC1=O)C2=O (stereo not shown) [Example Ctrl-3, 4-(((2-(4-chlorophenyl)oxazol-5-yl)methyl)(methyl)amino)-2-(2,6-dioxopiperidin-3-yl)isoindoline-1,3-dione, reference compound] | – | – | – | IC50 (MM.1S cells; [4]): > 30 nM; IC50 (Mino cells; [5]): > 120 nM; IC50 (MV-4-11 cells; [7]): 1000 to 20000 nM
O=C1CCC(N2C(=O)c3cccc(NCc4cnc(CN5CCC(N6CCOCC6)CC5)o4)c3C2=O)C(=O)N1 (stereo not shown) [Example 87] | 30 to 150 nM | > 20000 nM | > 120 nM | –
O=C1CCC(N2C(=O)c3cccc(NCc4cnc(C5CCN(Cc6ccc(F)cc6)CC5)o4)c3C2=O)C(=O)N1 (stereo not shown) [Example 12] | 30 to 150 nM | < 1000 nM | > 120 nM | –
N#Cc1ccc(CN2CCC(c3ncc(CNc4cccc5c4C(=O)N(C4CCC(=O)NC4=O)C5=O)o3)CC2)c(F)c1 (stereo not shown) [Example 13] | 30 to 150 nM | 1000 to 20000 nM | > 120 nM | –
O=C1CCC(N2C(=O)c3cccc(NCc4cnc(CN5CC(N6CCOCC6)C5)o4)c3C2=O)C(=O)N1 (stereo not shown) [Example 80] | > 150 nM | < 1000 nM | > 120 nM | –
CC(C)(C)C(=O)OCN1C(=O)CCC(N2C(=O)c3cccc(NCc4cnc(C5CCN(C(=O)C(C)(C)C)CC5)o4)c3C2=O)C1=O (stereo not shown) [Example 41] | 15 to 30 nM | 1000 to 20000 nM | > 120 nM | –
O=C1CCC(N2Cc3c(OCC4CCN(c5ccc(OC(F)(F)F)cc5)CC4)cccc3C2=O)C(=O)N1 (stereo not shown) [Prior Art Disclosed Compound-4, reference compound] | – | – | – | IC50 (MM.1S cells; [4]): > 41 nM; IC50 (Mino cells; [5]): 7500 nM; IC50 (MV-4-11 cells; [6]): > 10000 nM
O=C1CCC(N2C(=O)c3cccc(NCc4cnc(C5CCN(C(=O)CC67CC8CC(CC(C8)C6)C7)CC5)o4)c3C2=O)C(=O)N1 (stereo not shown) [Example 11] | < 15 nM | < 1000 nM | < 60 nM | –
O=C1CCC(N2C(=O)c3cccc(NCc4cnc(-c5ccc(F)cc5)o4)c3C2=O)C(=O)N1 (stereo not shown) [Example 93, 2-(2,6-Dioxopiperidine-3-yl)-4-(((2-(4-Fluorophenyl)oxazol-5-yl)methyl)amino)isoindoline-1,3-dione] | – | – | – | IC50 (MM.1S cells; 7 days, MTS, Table 1, read-out: MM.1S Cells Inhibition Activity IC50): < 15 nM; IC50 (Mino cells; 3 days, MTS, Table 2, read-out: Mino Cells Inhibition Activity IC50): < 60 nM; IC50 (MV-4-11 cells; 7 days, MTS, Table 3, read-out: MV-4-11 Cells Inhibition Activity IC50): < 1000 nM

Second part, led by results:

IC50 (MM.1S cells; [1]) | IC50 (MV-4-11 cells; [3]) | Structure (SMILES) | IC50 (Mino cells; [2]) | further results
30 to 150 nM | > 20000 nM | O=C1CCC(N2C(=O)c3cccc(NCc4ncc(-c5cccc(C(F)(F)F)c5)o4)c3C2=O)C(=O)N1 (stereo not shown) [Example 61] | > 120 nM | –
< 15 nM | < 1000 nM | C=Cc1ccc(-c2ncc(CNc3cccc4c3C(=O)N(C3CCC(=O)NC3=O)C4=O)s2)cc1 (stereo not shown) [Example 31] | < 60 nM | –
30 to 150 nM | 1000 to 20000 nM | O=C1CCC(N2C(=O)c3cccc(NCc4cnc(-c5ccccc5C(F)(F)F)o4)c3C2=O)C(=O)N1 (stereo not shown) [Example 59] | > 120 nM | –
30 to 150 nM | 1000 to 20000 nM | O=C1CCC(N2C(=O)c3cccc(NCc4cnc(-c5cccc(F)c5)s4)c3C2=O)C(=O)N1 (stereo not shown) [Example 28] | > 120 nM | –
30 to 150 nM | > 20000 nM | O=C1CCC(N2C(=O)c3cccc(NCc4cnc(-c5ccc(Cl)nc5)o4)c3C2=O)C(=O)N1 (stereo not shown) [Example 44] | > 120 nM | –
< 15 nM | < 1000 nM | O=C1CCC(N2C(=O)c3cccc(NCc4ncc(-c5ccc(Cl)cc5)o4)c3C2=O)C(=O)N1 (stereo not shown) [Example 64, 4-(((5-(4-Chlorophenyl)oxazol-2-yl)methyl)amino)-2-(2,6-Dioxopiperidin-3-yl)isoindolin-1,3-dione] | > 120 nM | –
30 to 150 nM | < 1000 nM | O=C1CCC(N2C(=O)c3cccc(NCc4ncc(-c5ccc(F)cc5)s4)c3C2=O)C(=O)N1 (stereo not shown) [Example 34] | > 120 nM | –
< 15 nM | 1000 to 20000 nM | O=C1CCC(N2C(=O)c3cccc(NCc4cnc(-c5cccc(OC6COC6)c5)o4)c3C2=O)C(=O)N1 (stereo not shown) [Example 100] | > 120 nM | –
< 15 nM | < 1000 nM | O=C1CCC(N2C(=O)c3cccc(NCc4cnc(-c5cccc(OC6CC6)c5)o4)c3C2=O)C(=O)N1 (stereo not shown) [Example 96, 4-(((2-(Cyclopropoxyphenyl)oxazol-5-yl)methyl)amino)-2-(2,6-Dioxopiperidine-3-yl)isoindoline-1,3-dione] | > 120 nM | –
< 15 nM | < 1000 nM | O=C1CCC(N2C(=O)c3cccc(NCc4cnc(-c5cccc(-c6ccccc6)c5)o4)c3C2=O)C(=O)N1 (stereo not shown) [Example 18] | < 60 nM | –
30 to 150 nM | 1000 to 20000 nM | O=C1CCC(N2C(=O)c3cccc(NCc4cnc(-c5cc(Cl)ccc5Cl)o4)c3C2=O)C(=O)N1 (stereo not shown) [Example 77] | > 120 nM | –
< 15 nM | < 1000 nM | O=C1CCC(N2C(=O)c3cccc(NCc4cnc(-c5ccc(OC(F)(F)F)cc5)o4)c3C2=O)C(=O)N1 (stereo not shown) [Example 15] | 60 to 120 nM | IC50 (MM.1S cells; [4]): 6.4 nM; IC50 (Mino cells; [5]): 60.5 nM; IC50 (MV-4-11 cells; [6]): 750 nM
30 to 150 nM | 1000 to 20000 nM | O=C1CCC(N2C(=O)c3cccc(NCc4nnc(-c5ccccc5)s4)c3C2=O)C(=O)N1 (stereo not shown) [Example 99, 2-(2,6-Dioxopiperidine-3-yl)-4-(((5-Phenyl-1,3,4-thiadiazol-2-yl)methyl)amino)isoindoline-1,3-dione] | > 120 nM | –
15 to 30 nM | < 1000 nM | O=C1CCC(N2C(=O)c3cccc(NCc4cnc(-c5cccc(C(F)(F)F)c5)o4)c3C2=O)C(=O)N1 (stereo not shown) [Example 58] | > 120 nM | –
< 15 nM | < 1000 nM | O=C1CCC(N2C(=O)c3cccc(NCc4cnc(-c5ccc(Cl)cc5)o4)c3C2=O)C(=O)N1 (stereo not shown) [Example 25] | < 60 nM | IC50 (MM.1S cells; [4]): < 15 nM; IC50 (Mino cells; [5]): < 60 nM; IC50 (MV-4-11 cells; [7]): < 1000 nM
